Active and inactive are the calls of the source. The calls are words filed in the database; no cut-off is given here.
What was measured:
[1] = Cytotoxicity against ICR mouse BMDM assessed as reduction in cell viability incubated for 24 hrs by CCK8 assay; format: toxicity, cell-based; conditions: BMDM (bone marrow-derived macrophages)
[2] = target: NACHT, LRR and PYD domains-containing protein 3 (Homo sapiens, UniProt Q96P20); assay: Binding affinity to NLRP3 (unknown origin) by SPR assay
[3] = target: NACHT, LRR and PYD domains-containing protein 3 (Mus musculus) (UniProt Q8R4B8); assay: (§1) Inhibition of NLRP3 inflammasome activation in ICR mouse BMDM assessed as inhibition of LPS/ATP-stimulated caspase-1 expression in cell supernatant treated for 3 hrs with LPS followed by incubation with compound for 1 hr and later stimulated with ATP for 0.5 hrs by western blot analysis; format: cell-based; conditions: dose 0.2-5 µM, time 1.5 hrs
NACHT, LRR and PYD domains-containing protein 3 (Mus musculus), sequence (Q8R4B8 whole entry, the tested form may be a part): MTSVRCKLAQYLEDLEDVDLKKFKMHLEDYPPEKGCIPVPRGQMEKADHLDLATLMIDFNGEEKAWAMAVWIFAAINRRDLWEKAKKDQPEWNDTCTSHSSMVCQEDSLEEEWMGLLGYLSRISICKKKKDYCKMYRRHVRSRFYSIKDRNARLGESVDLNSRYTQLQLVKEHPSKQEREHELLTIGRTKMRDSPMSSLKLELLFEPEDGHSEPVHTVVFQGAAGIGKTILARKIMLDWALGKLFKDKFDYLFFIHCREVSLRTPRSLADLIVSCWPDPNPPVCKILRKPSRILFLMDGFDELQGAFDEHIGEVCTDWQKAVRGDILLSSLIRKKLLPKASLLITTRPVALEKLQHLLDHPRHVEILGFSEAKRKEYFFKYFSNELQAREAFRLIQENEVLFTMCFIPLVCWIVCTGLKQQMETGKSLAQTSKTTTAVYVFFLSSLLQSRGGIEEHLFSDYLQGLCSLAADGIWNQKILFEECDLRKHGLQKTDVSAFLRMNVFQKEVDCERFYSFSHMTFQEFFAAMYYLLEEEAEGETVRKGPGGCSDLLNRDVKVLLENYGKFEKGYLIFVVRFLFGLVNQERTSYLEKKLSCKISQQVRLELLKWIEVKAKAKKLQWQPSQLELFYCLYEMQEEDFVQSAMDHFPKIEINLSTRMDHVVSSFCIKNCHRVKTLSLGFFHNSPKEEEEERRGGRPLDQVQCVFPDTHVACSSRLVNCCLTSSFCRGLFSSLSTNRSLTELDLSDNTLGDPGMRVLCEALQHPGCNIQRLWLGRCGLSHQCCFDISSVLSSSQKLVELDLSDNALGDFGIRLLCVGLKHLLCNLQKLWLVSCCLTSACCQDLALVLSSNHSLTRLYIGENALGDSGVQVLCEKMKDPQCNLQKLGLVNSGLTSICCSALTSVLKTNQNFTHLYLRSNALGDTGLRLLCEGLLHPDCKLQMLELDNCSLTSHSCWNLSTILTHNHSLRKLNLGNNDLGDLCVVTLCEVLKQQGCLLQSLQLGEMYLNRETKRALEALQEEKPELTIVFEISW

[4] = target: NACHT, LRR and PYD domains-containing protein 3 (Mus musculus) (UniProt Q8R4B8); assay: Inhibition of NLRP3 inflammasome priming in ICR mouse BMDM assessed as inhibition of NLRP3 protein expression in cell lysate at 0.2 to 5 uM treated for 3 hrs with LPS followed by incubation with compound for 1 hr and later stimulated with ATP for 0.5 hrs by western blot analysis; format: subcellular; conditions: dose 0.2-5 µM, time 1.5 hrs
[5] = target: NACHT, LRR and PYD domains-containing protein 3 (Mus musculus) (UniProt Q8R4B8); assay: Inhibition of NLRP3 inflammasome priming in ICR mouse BMDM assessed as inhibition of ASC protein expression in cell lysate at 0.2 to 5 uM treated for 3 hrs with LPS followed by incubation with compound for 1 hr and later stimulated with ATP for 0.5 hrs by western blot analysis; format: subcellular; conditions: dose 0.2-5 µM, time 1.5 hrs
[6] = target: NACHT, LRR and PYD domains-containing protein 3 (Mus musculus) (UniProt Q8R4B8); assay: Inhibition of NLRP3 inflammasome priming in ICR mouse BMDM assessed as inhibition of pro-caspase-1 protein expression in cell lysate at 1 uM treated for 3 hrs with LPS followed by incubation with compound for 1 hr and later stimulated with ATP for 0.5 hrs by western blot analysis; format: subcellular; conditions: time 1.5 hrs
[7] = target: NACHT, LRR and PYD domains-containing protein 3 (Mus musculus) (UniProt Q8R4B8); assay: as §1, with “LPS/nigericin-stimulated” for “LPS/ATP-stimulated”, “supernatant at 1 uM” for “supernatant”, “nigericin” for “ATP”; format: cell-based; conditions: time 1.5 hrs
[8] = target: NACHT, LRR and PYD domains-containing protein 3 (Mus musculus) (UniProt Q8R4B8); assay: Inhibition of NLRP3 inflammasome priming in ICR mouse BMDM assessed as inhibition of pro-IL-1 beta expression in cell lysate at 1 uM treated for 3 hrs with LPS followed by incubation with compound for 1 hr and later stimulated with nigericin for 0.5 hrs by western blot analysis; format: subcellular; conditions: time 1.5 hrs
[9] = target: NACHT, LRR and PYD domains-containing protein 3 (Mus musculus) (UniProt Q8R4B8); assay: (§2) Inhibition of NLRP3 inflammasome activation in ICR mouse BMDM assessed as inhibition of LPS/MSU-stimulated caspase-1 expression in cell supernatant at 1 uM treated for 3 hrs with LPS followed by incubation with compound for 1 hr and later stimulated with MSU for 4 hrs by western blot analysis; format: cell-based; conditions: time 5.0 hrs
[10] = target: NACHT, LRR and PYD domains-containing protein 3 (Mus musculus) (UniProt Q8R4B8); assay: Inhibition of NLRP3 inflammasome priming in ICR mouse BMDM assessed as inhibition of pro-caspase-1 protein expression in cell lysate at 1 uM treated for 3 hrs with LPS followed by incubation with compound for 1 hr and later stimulated with MSU for 4 hrs by western blot analysis; format: subcellular; conditions: time 5.0 hrs
[11] = target: T1, Interferon-inducible protein AIM2 (Mus musculus) (UniProt Q91VJ1); assay: as §2, with “AIM2” for “NLRP3”, “poly(dA:dT)-stimulated IL-1 beta” for “LPS/MSU-stimulated caspase-1”, “cells transfected” for “stimulated”, “poly(dA:dT)” for “MSU”; format: cell-based; conditions: time 5.0 hrs
T1 sequence (whole entry): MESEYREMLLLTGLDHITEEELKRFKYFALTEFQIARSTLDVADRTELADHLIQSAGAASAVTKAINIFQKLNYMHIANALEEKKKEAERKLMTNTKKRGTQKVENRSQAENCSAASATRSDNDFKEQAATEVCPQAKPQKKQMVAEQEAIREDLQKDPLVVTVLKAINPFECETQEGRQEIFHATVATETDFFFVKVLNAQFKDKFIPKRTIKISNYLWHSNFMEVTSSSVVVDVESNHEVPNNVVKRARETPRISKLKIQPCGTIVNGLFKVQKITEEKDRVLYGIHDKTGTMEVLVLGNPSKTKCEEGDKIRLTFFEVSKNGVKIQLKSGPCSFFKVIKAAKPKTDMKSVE

[12] = target: NLR family CARD domain-containing protein 4 (Mus musculus) (UniProt Q3UP24); assay: Inhibition of NLRC4 inflammasome activation in ICR mouse BMDM assessed as inhibition of FLA-ST-stimulated caspase-1 expression in cell supernatant at 1 uM treated for 3 hrs with LPS followed by incubation with compound for 1 hr and later stimulated with FLA-ST for 2 hrs by western blot analysis; format: cell-based
NLR family CARD domain-containing protein 4 (Mus musculus), sequence (Q3UP24 whole entry, the tested form may be a part): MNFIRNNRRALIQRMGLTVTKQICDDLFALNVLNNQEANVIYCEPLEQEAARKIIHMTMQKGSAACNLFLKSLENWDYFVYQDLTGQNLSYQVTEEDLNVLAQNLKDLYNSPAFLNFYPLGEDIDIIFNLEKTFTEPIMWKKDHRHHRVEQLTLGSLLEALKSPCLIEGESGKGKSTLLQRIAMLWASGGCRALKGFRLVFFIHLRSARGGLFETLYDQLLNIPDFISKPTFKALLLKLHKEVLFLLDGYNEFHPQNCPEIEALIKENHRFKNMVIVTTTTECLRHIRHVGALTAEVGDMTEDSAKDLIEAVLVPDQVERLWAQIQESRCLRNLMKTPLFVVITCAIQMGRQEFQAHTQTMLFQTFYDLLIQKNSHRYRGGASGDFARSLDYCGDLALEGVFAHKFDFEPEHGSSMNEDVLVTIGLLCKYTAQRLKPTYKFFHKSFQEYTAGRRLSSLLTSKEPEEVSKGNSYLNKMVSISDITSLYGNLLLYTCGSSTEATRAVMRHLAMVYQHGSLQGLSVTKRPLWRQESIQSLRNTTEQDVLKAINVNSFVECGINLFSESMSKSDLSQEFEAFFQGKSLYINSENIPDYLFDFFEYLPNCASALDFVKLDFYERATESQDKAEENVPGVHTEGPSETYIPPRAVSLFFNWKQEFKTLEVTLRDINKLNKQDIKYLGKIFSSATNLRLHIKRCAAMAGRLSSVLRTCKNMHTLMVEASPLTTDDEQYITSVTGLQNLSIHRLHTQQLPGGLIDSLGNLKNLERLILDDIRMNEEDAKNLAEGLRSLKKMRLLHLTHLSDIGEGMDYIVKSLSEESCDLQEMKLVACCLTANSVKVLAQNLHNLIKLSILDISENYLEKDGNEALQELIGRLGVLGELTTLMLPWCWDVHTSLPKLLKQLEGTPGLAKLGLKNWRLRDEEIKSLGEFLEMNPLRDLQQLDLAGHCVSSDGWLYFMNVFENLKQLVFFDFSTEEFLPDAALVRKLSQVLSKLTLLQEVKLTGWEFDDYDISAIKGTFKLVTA

[13] = target: NACHT, LRR and PYD domains-containing protein 3 (Mus musculus) (UniProt Q8R4B8); assay: Inhibition of NLRP3 inflammasome priming in ICR mouse BMDM assessed as inhibition of TNF-alpha secretion in cell supernatant at 0.2 to 5 uM pretreated with compound for 1 hr followed by stimulation with LPS for 3 hrs and later incubated with ATP for 30 mins by ELISA; format: cell-based; conditions: dose 0.2-5 µM, time 4.5 hrs
[14] = target: NACHT, LRR and PYD domains-containing protein 3 (Mus musculus) (UniProt Q8R4B8); assay: Inhibition of NLRP3 inflammasome priming in ICR mouse BMDM assessed as inhibition of ASC expression in cell supernatant at 0.2 to 5 uM pretreated with compound for 1 hr followed by stimulation with LPS for 3 hrs and later incubated with ATP for 30 mins by western blot analysis; format: cell-based; conditions: dose 0.2-5 µM, time 4.5 hrs
Mus musculus [15] = assay: Anti-inflammatory activity against LPS-stimulated acute lung injury C57BL/6 mouse model assessed as decrease in weight loss at 0.1 to 1 mg/kg, ip treated for 3 days and on third day administered with LPS at 30 mins post-compound challenge; format: functional, organism-based; conditions: dose 0.1-1 mg/kg, time 3.0 day
Mus musculus [16] = assay: (§3) Anti-inflammatory activity against LPS-stimulated acute lung injury C57BL/6 mouse model assessed as decrease in IL-6 level in serum at 0.1 to 1 mg/kg, ip treated for 3 days and on third day administered with LPS at 30 mins post-compound challenge and measured after 12 hrs by ELISA; format: functional, organism-based; conditions: dose 0.1-1 mg/kg, time 3.5 day
Mus musculus [17] = assay: (§4) Anti-inflammatory activity against LPS-stimulated acute lung injury C57BL/6 mouse model assessed as decrease in IL-1 beta level in BALF at 0.1 to 1 mg/kg, ip treated for 3 days and on third day administered with LPS at 30 mins post-compound challenge and measured after 12 hrs by ELISA; format: functional, organism-based; conditions: dose 0.1-1 mg/kg, time 3.5 day
Mus musculus [18] = assay: as §3, with “mRNA expression” for “level”, “right lung” for “serum”, “RT-qPCR analysis” for “ELISA”; format: functional, organism-based; conditions: dose 0.1-1 mg/kg, time 3.5 day
Mus musculus [19] = assay: as §4, with “mRNA expression” for “level”, “right lung” for “BALF”, “RT-qPCR analysis” for “ELISA”; format: functional, organism-based; conditions: dose 0.1-1 mg/kg, time 3.5 day
Mus musculus [20] = assay: as §3, with “IL-18 mRNA expression” for “IL-6 level”, “right lung” for “serum”, “RT-qPCR analysis” for “ELISA”; format: functional, organism-based; conditions: dose 0.1-1 mg/kg, time 3.5 day
Mus musculus [21] = assay: (§5) Anti-inflammatory activity against LPS-stimulated acute lung injury C57BL/6 mouse model assessed as decrease in inflammatory cell infiltration in right lung at 1 to 10 mg/kg, ip treated for 3 days and on third day administered with LPS at 30 mins post-compound challenge and measured after 12 hrs by Hematoxylin-Eosin staining analysis; format: functional, organism-based; conditions: dose 1-10 mg/kg, time 3.5 day
Mus musculus [22] = assay: as §4, with “beta expression” for “beta level”, “in right lung” for “in BALF”, “to 10” for “to 1”, “by western blot analysis” for “by ELISA”; format: functional, organism-based; conditions: dose 0.1-10 mg/kg, time 3.5 day
Mus musculus [23] = assay: as §5, with “in caspase-1 expression” for “in inflammatory cell infiltration”, “at 0.1” for “at 1”, “by western blot” for “by Hematoxylin-Eosin staining”; format: functional, organism-based; conditions: dose 0.1-10 mg/kg, time 3.5 day

NACHT, LRR and PYD domains-containing protein 3, sequence (Q96P20 whole entry, the tested form may be a part): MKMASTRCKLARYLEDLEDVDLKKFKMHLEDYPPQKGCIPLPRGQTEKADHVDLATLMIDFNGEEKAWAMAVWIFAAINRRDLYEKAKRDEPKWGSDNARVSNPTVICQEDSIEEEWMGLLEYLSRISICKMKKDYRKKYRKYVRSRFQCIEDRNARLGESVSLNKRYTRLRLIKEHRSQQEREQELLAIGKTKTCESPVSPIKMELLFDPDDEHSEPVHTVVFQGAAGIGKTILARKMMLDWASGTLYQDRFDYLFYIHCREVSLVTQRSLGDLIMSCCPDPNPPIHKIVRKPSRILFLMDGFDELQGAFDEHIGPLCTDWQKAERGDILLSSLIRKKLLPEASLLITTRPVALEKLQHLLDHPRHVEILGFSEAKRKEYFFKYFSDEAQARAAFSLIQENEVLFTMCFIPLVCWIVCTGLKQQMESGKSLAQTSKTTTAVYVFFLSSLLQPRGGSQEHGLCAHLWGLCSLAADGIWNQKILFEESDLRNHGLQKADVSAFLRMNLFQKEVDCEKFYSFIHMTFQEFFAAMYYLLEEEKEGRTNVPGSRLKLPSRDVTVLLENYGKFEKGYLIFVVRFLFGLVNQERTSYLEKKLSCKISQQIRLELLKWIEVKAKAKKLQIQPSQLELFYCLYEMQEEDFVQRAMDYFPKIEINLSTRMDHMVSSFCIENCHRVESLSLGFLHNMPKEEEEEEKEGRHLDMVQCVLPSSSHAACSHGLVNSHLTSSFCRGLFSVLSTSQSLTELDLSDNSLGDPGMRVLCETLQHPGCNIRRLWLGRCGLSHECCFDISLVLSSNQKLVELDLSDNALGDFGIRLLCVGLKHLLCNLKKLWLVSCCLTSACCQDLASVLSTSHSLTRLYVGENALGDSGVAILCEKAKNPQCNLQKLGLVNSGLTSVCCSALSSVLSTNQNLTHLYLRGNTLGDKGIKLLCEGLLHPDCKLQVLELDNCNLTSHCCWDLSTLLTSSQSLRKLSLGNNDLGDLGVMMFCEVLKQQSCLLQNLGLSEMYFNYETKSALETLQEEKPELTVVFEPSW

Kd [2]: 5.17 µM
inhibition [3]: Dose-Dependent Effect
inhibition [4]: inactive
inhibition [5]: inactive
inhibition [6]: inactive
inhibition [7]: Active
inhibition [8]: inactive
inhibition [9]: Active
inhibition [10]: inactive
inhibition [11]: inactive
inhibition [12]: inactive
inhibition [13]: inactive
inhibition [14]: inactive
Compound: C=C1C(=O)[C@]23[C@H](OC(=O)Nc4ccc(F)cc4)[C@H]1CC[C@H]2[C@]12C=CCC(C)(C)[C@H]1[C@H](O)[C@@]3(O)OC2
IC50 at 24 h [1]: > 10 µM
Activity (Mus musculus [15]): Active
Activity (Mus musculus [16]): Dose-Dependent Effect
Activity (Mus musculus [17]): Dose-Dependent Effect
Activity (Mus musculus [18]): Dose-Dependent Effect
Activity (Mus musculus [19]): Dose-Dependent Effect
Activity (Mus musculus [20]): Dose-Dependent Effect
Activity (Mus musculus [21]): Active
Activity (Mus musculus [22]): Active
Activity (Mus musculus [23]): Active

Reference: ChEMBL document CHEMBL6071152, “Design, synthesis, and biological evaluation of oridonin derivatives as novel NLRP3 inflammasome inhibitors for the treatment of acute lung injury” (Eur J Med Chem, 2024)
